# Results as given in publication PMC10633902, “Investigating the antimicrobial activity, cytotoxicity, and action mechanism of acylated and amidated derivatives of AurH1 antifungal peptide” (BMC Microbiology, 2023).
# Where two headings read alike, the source gives them in different places. No end group written: not given here.
# How the values were obtained:
# [1] = tested on: Aspergillus flavus (ATCC 24,109); assay: microbe, parasite or virus in culture; assay type: cell-based
# Procedure: (§1) The human skin fibroblast (Hu02 cell) and human breast cancer cells (MDA-MB-231 and SKBR-3 cell lines) were purchased from the National Cell Bank of Iran, Pasture Institute of Ira) for cytotoxicity test. Antimicrobial effects of the Ac-AurH1, AurH1-NH2, and AurH1 against the selected bacteria and fungi were conducted using a standard serial dilution method in a 96-well microplate. For this purpose, the desired fungal and bacterial strains were grown overnight at 37 °C (Some of the fungi were incubated at 25 °C) in related media (SDA for fungi and MHA for bacteria). […] Next, serially diluted synthetic peptides in a volume of 100 μL were added to the microtitre plates, followed by 100 μL of bacteria and fungi to give a final inoculum of 5 × 10^5 colony-forming units (CFU)/ml (a 0.5 McFarland standard inoculum). […] In this test, penicillin and streptomycin antibiotics for bacteria and fluconazole, nystatin, and amphotericin B for fungal strains were used as antibiotic control. […] All tests were repeated three times independently.
# [2] = tested on: Aspergillus niger (ATCC 9142); assay: microbe, parasite or virus in culture; assay type: cell-based
# Procedure: as §1
# [3] = tested on: Candida albicans (ATCC 10,231); assay: microbe, parasite or virus in culture; assay type: cell-based
# Procedure: as §1
# [4] = tested on: Candida glabrata (ATCC 90,030); assay: microbe, parasite or virus in culture; assay type: cell-based
# Procedure: as §1
# [5] = tested on: Candida krusei (ATCC 28,870); assay: microbe, parasite or virus in culture; assay type: cell-based
# Procedure: as §1
# C. albicans [6] = assay: Killing kinetic assay (time of killing); assay type: cell-based, Candida albicans; conditions: 1X MIC concentration
# [7] = tested on: Escherichia coli (ATCC 25,922); assay: microbe, parasite or virus in culture; assay type: cell-based
# Procedure: as §1
# [8] = tested on: Staphylococcus aureus (ATCC 25,923); assay: microbe, parasite or virus in culture; assay type: cell-based
# Procedure: as §1
# [9] = tested on: Human skin fibroblast (Hu02 cells); assay type: cell-based
# Procedure: Toxicity of peptides on Human skin fibroblast (Hu02 cells) and two human breast cancer cell lines (MDA-MB-231 and SKBR3 cell lines) measured by an MTT assay. At first, cell lines with a density of 1 × 10^5 cells were cultured in the wells of 96-well plates for 24 h under standard conditions (37 °C temperature, 5% CO2 atmosphere with 95% relative humidity). After that, the old medium was replaced with fresh medium (with 10% FBS) containing different peptide concentrations, and the cells were incubated for 24 h. A medium without peptide was used as a negative control. After 24 h of incubation and washing the wells with PBS, the medium (containing 10% FBS) was replaced with fresh medium containing 10% MTT solution (freshly prepared 5 mg/ml MTT in PBS), and the plate was incubated for four h in 5% CO2, at 37 °C. Next, the medium was removed from the wells, and 100 µL DMSO was added. Afterward, the plate was shaken to dissolve Formazan crystals. Finally, by a microplate reader (STAT FAX 2100, BioTek, Winooski, USA), the absorbance values were measured at a wavelength of 595 nm. The percentage of toxicity was calculated as follows: […]
# human red blood cells = assay type: cell-based; conditions: 1 h
# Procedure: A hemolytic assay was performed to investigate the effects of peptides on human red blood cells. First, 5 ml of fresh human blood was taken from a volunteer. After that, 20% (v/v) suspension of human erythrocytes was prepared and diluted in PBS (1:20). Next, 100 µL of this blood suspension was added in triplicate to 100 µL of a 2-fold serial dilution series of the peptide in a 96‐well plate. 1% Triton-X 100 was used as a positive control to lyse 100% of RBCs, and sterile 0.9% NaCl solution was used as a negative control. Then the plates were incubated at 37 °C for 1 h and centrifuged at 3500 rpm for 10 min. Next, 100 µL of the supernatant was transferred to a new 96-well plate to measure the absorbance at 414 nm using a microplate reader (STAT FAX 2100, BioTek, Winooski, USA). Finally, the percentage of hemolysis was calculated as follows: […]
# C. albicans [10] = assay type: cell-based, Candida albicans
# Procedure: (§2) The microbial inoculum was prepared based on broth micro-dilution assay to generate a concentration of fungi corresponding to 5 × 10^5 CFU/mL. […] The obtained results were analyzed in terms of the fractional inhibitory concentration index (FIC): [drawing 4] AMPs and antibiotics are antagonistic if FIC ≥ 4.0, indifference if > 1 FIC < 4.0, additive if > 0.5 FIC ≤ 1, and synergism if FIC ≤ 0.5.
# C. glabrata = assay type: cell-based, Candida glabrata
# Procedure: as §2
# C. krusei = assay type: cell-based, Candida krusei
# Procedure: as §2
# C. albicans [11] = assay: Ergosterol binding assay (MIC in presence and absence of ergosterol); assay type: cell-based, Candida albicans
# Procedure: An ergosterol binding assay was performed to measure the binding potency of peptides to fungal membrane sterols. For this purpose, the ergosterol was dissolved in DMSO and Tween-20, it was heated to increase the solubility of the formed emulsion and diluted in an SDB medium at a concentration of […] and incubated at 37 °C for 1 h. After that, MIC of the AurH1, Ac-AurH1, and AurH1-NH2 peptides was measured by the micro-dilution method in the presence and absence of ergosterol in different concentrations ([…]) against C. albicans.
# C. albicans [12] = assay: Effect of salts and human serum on antimicrobial activity (MIC); assay type: cell-based, Candida albicans
# Procedure: To evaluate the effect of salts and human serum on the antimicrobial activity of the AurH1-NH2 and AurH1 peptides, their antimicrobial activity (MICs values) against C. albicans under different conditions containing salt and human serum was determined. Therefore, mid-logarithmic phase yeasts diluted to 5 × 10^5 CFU/ml in SDB were added to related media containing different concentrations of human serum (10%, 20%, and 30%) and salts (150 mM NaCl and 1mM MgCl2), and incubated at 37 °C for 24 h.
# C. albicans [13] = assay: FE-SEM of C. albicans surface after peptide treatment; assay type: cell-based, Candida albicans; conditions: 0.5 X MIC
# Procedure: At first, C. albicans were cultured in broth media. Next, yeasts were deposited by centrifugation (4000 rpm for 1 min) and washed (Three times) with PBS (pH 7.4). […] The samples were centrifuged at 4000 rpm for 1 min, washed three times in PBS, and put on the glass slides (1cm2). Subsequently, cells were dehydrated with ethanol gradient (at 10, 30, 60, 70, and 90%). After that, the dehydrated cells were dissolved in 100% ethanol for 15 min and dried at room temperature (25 °C). Finally, C. albicans cells were coated with gold nanoparticles by an automatic sputter coater and observed using an FE-SEM instrument (JSM-7610 F, JEOL Co., Japan and MIRA3, TESCAN Co., Czech).
# [14] = A. flavus, mean of 3 independent tests
# [15] = A. niger, mean of 3 independent tests
# [16] = C. albicans, mean of 3 independent tests
# [17] = C. glabrata, mean of 3 independent tests
# [18] = C. krusei, mean of 3 independent tests
# [19] = in combination with amphotericin B (Amph)
# [20] = in combination with fluconazole (Flu)
# [21] = in combination with nystatin (Nys)
compound,measurement,setting,value
"OC(Cn1cncn1)(Cn1cncn1)c1ccc(F)cc1F [Flu, Fluconazole, reference compound]",MIC,"[1]; Aspergillus flavus, ATCC24, A. flavus, mean of 3 independent tests, read-out: MIC",> 1000 µg/mL
same,MBC,"[2]; Aspergillus niger, ATCC9142, A. niger, mean of 3 independent tests",> 1000 µg/mL
same,MIC,"[2]; Aspergillus niger, ATCC9142, A. niger, mean of 3 independent tests, read-out: MIC",500 µg/mL
same,MBC,"[3]; Candida albicans, ATCC10, C. albicans, mean of 3 independent tests",500 µg/mL
same,MIC,"[3]; Candida albicans, ATCC10, C. albicans, mean of 3 independent tests, read-out: MIC",62.5 µg/mL
same,MBC,"[4]; Nakaseomyces glabratus, ATCC90, C. glabrata, mean of 3 independent tests",500 µg/mL
same,MIC,"[4]; Nakaseomyces glabratus, ATCC90, C. glabrata, mean of 3 independent tests, read-out: MIC",125 µg/mL
same,MBC,"[5]; Pichia kudriavzevii, ATCC28, C. krusei, mean of 3 independent tests",250 µg/mL
same,MIC,"[5]; Pichia kudriavzevii, ATCC28, C. krusei, mean of 3 independent tests, read-out: MIC",62.5 µg/mL
same,time to kill all C. albicans (maximum fungicidal effect),C. albicans [6],could not eliminate C. albicans after 24 h
"C[C@@H]1[C@H](O)[C@@H](C)/C=C/C=C/CC/C=C/C=C/C=C/C=C/C(O[C@H]2O[C@H](C)[C@@H](O)[C@H](N)[C@@H]2O)CC2O[C@](O)(CC(O)C(O)CCC(O)CC(O)CC(O)CC(=O)O[C@H]1C)CC(O)C2C(=O)O (some centres unmarked) [Nys, Nystatin, reference compound]",MBC (MFC),[1]; [14],62.50 µg/mL
same,MIC,[1]; [14],7.81 µg/mL
same,MBC (MFC),[2]; [15],125 µg/mL
same,MIC,[2]; [15],31.25 µg/mL
same,MBC (MFC),[3]; [16],3.90 µg/mL
same,MIC,[3]; [16],1.95 µg/mL
same,MBC (MFC),[4]; [17],3.9 µg/mL
same,MIC,[4]; [17],3.9 µg/mL
same,MBC (MFC),[5]; [18],3.90 µg/mL
same,MIC,[5]; [18],1.95 µg/mL
same,time to kill all C. albicans (maximum fungicidal effect),C. albicans [6],8 h
"[H]/N=C(/N)N[C@H]1[C@H](O)[C@@H](O)[C@H](O[C@@H]2O[C@@H](C)[C@](O)(C=O)[C@H]2O[C@@H]2O[C@@H](CO)[C@H](O)[C@@H](O)[C@@H]2NC)[C@@H](N/C(N)=N\[H])[C@@H]1O [Strep, Streptomycin, reference compound]",MIC,"[7]; Escherichia coli, ATCC25, E. coli, mean of 3 independent tests, read-out: MIC",3.9 µg/mL
same,MIC,"[8]; Staphylococcus aureus, ATCC25, S. aureus, mean of 3 independent tests, read-out: MIC",62.5 µg/mL
"Ac-WFKIIKK [Ac-AurH1, Ac-WFKIIKK]",MIC,"[1]; ATCC 24, 24 h",> 1000 µg/mL
same,MIC,"[2]; ATCC 9142, 24 h",> 1000 µg/mL
same,MBC (MFC),"[3]; ATCC 10, 24 h",> 1000 µg/mL
same,MIC,"[3]; ATCC 10, 24 h",250 µg/mL
same,MIC,"[4]; ATCC 90, 24 h",> 1000 µg/mL
same,MBC (MFC),"[5]; ATCC 28, 24 h",> 1000 µg/mL
same,MIC,"[5]; ATCC 28, 24 h",500 µg/mL
same,MIC,"[7]; ATCC 25, 24 h",> 1000 µg/mL
same,MIC,"[8]; ATCC 25, 24 h",> 1000 µg/mL
same,toxicity,[9],more than 10%
same,HC50 (concentration that lyses 50% of red blood cells),human red blood cells,"10,127 µg/ml"
"H-WFKIIKK-NH2 [AurH1-NH2, WFKIIKK-NH2]",MBC (MFC),"[1]; ATCC 24, 24 h",1000 µg/mL
same,MIC,"[1]; ATCC 24, 24 h",250 µg/mL
same,MBC (MFC),"[2]; ATCC 9142, 24 h",500 µg/mL
same,MIC,"[2]; ATCC 9142, 24 h",125 µg/mL
same,MBC (MFC),"[3]; ATCC 10, 24 h",62.50 µg/mL
same,MIC,"[3]; ATCC 10, 24 h",7.81 µg/mL
same,MBC (MFC),"[4]; ATCC 90, 24 h",62.5 µg/mL
same,MIC,"[4]; ATCC 90, 24 h",62.5 µg/mL
same,MBC (MFC),"[5]; ATCC 28, 24 h",31.25 µg/mL
same,MIC,"[5]; ATCC 28, 24 h",7.81 µg/mL
same,MIC,"[7]; ATCC 25, 24 h",> 1000 µg/mL
same,MIC,"[8]; ATCC 25, 24 h",> 1000 µg/mL
same,toxicity,[9],no significant toxicity
same,HC50 (concentration that lyses 50% of red blood cells),human red blood cells,"14,246 µg/ml"
same,time to kill all C. albicans (maximum fungicidal effect),C. albicans [6],12 h
same,Interpretation,C. albicans [10]; [19],Synergy (synergism if FIC ≤ 0.5)
same,Interpretation,C. albicans [10]; [20],Indifference (indifference if > 1 FIC < 4.0)
same,Interpretation,C. albicans [10]; [21],Indifference (indifference if > 1 FIC < 4.0)
same,Interpretation,C. glabrata; [19],Synergy (synergism if FIC ≤ 0.5)
same,Interpretation,C. glabrata; [20],Indifference (indifference if > 1 FIC < 4.0)
same,Interpretation,C. glabrata; [21],Antagonist (antagonistic if FIC ≥ 4.0)
same,Interpretation,C. krusei; [19],Synergy (synergism if FIC ≤ 0.5)
same,Interpretation,C. krusei; [20],Indifference (indifference if > 1 FIC < 4.0)
same,Interpretation,C. krusei; [21],Antagonist (antagonistic if FIC ≥ 4.0)
same,MIC,C. albicans [11]; after treatment with Ergosterol (Erg),7.81 µg/mL
same,MIC,C. albicans [11]; before treatment with Ergosterol (substance alone),7.81 µg/mL
same,MIC,C. albicans [12]; SDB,7.81 µg/mL
same,MIC,C. albicans [12]; SDB + 10% serum (human),7.81 µg/mL
same,MIC,C. albicans [12]; SDB + 20% serum (human),7.81 µg/mL
same,MIC,C. albicans [12]; SDB + 30% serum (human),15.6 µg/mL
same,MIC,C. albicans [12]; SDB + MgCl2 (1 mM),7.81 µg/mL
same,MIC,C. albicans [12]; SDB + NaCl (150 mM),7.81 µg/mL
same,surface morphology change (FE-SEM),C. albicans [13]; after 2 h,shrinkages in cell-surface
same,surface morphology change (FE-SEM),C. albicans [13]; after 4 h,increase was seen in the amount of cell surface shrinkage and cell roughening
same,surface morphology change (FE-SEM),C. albicans [13]; after 6 h,blisters and surface pores on the cell surface were created
Penicillin [reference compound],MIC,"[7]; E. coli, mean of 3 independent tests",31.25/NA µg/mL
same,MIC,"[8]; S. aureus, mean of 3 independent tests",0.45/NA µg/mL
